One compound from patent publication EP4467535A1, “LACTAM PESTICIDAL COMPOUNDS” (priority 2023, dated 2024) can be followed below.

As a reminder, the mortality is the share of the test organisms that died.

Common to all, as to assay type: in vivo
For assay [1], the system named is Yellow fever mosquito (Aedes aegypti). Description: whole plant or invertebrate. As to conditions: 48 h, larval mortality visually assessed after 2 days at 28 ± 1°C, read-out: mortality in comparison with untreated controls. On the procedure: Example B1: Action on Yellow fever mosquito (Aedes aegypti)
For evaluating control of yellow fever mosquito (Aedes aegypti) the test unit consisted of 96-well-microtiter plates containing 200µL of tap water per well and 5-15 freshly hatched A. aegypti larvae.
The active compounds or mixtures were formulated using a solution containing 75% (v/v) water and 25% (v/v) DMSO. Different concentrations of formulated compounds or mixtures were sprayed onto the insect diet at 2.5µL, using a custom-built micro atomizer, at two replications.
For experimental mixtures in these tests identical volumes of both mixing partners at the desired concentrations respectively, were mixed together.
After application, microtiter plates were incubated at 28 ± 1°C, 80 ± 5 % relative humidity for 2 days. Larval mortality was then visually assessed.

Assay [2] concerns Orchid thrips (Dichromothrips corbetti). As to the kind of experiment: Action on Orchid thrips (Dichromothrips corbetti), floral-immersion technique. The note with it: adult thrips on dipped orchid petals, 72 hours after treatment, read-out: mortality in comparison with untreated controls. On the procedure: Example B2: Action on Orchid thrips (Dichromothrips corbetti)
Dichromothrips corbetti adults used for bioassay were obtained from a colony maintained continuously under laboratory conditions. For testing purposes, the test compound is diluted in a 1:1 mixture of acetone:water (vol:vol), plus Kinetic® HV at a rate of 0.01% v/v.
Thrips potency of each compound was evaluated by using a floral-immersion technique. All petals of individual, intact orchid flowers were dipped into treatment solution and allowed to dryin Petri dishes. Treated petals were placed into individual re-sealable plastic along with about 20 adult thrips. All test arenas were held under continuous light and a temperature of about 28°C for duration of the assay. After 3 days, the numbers of live thrips were counted on each petal. The percent mortality was recorded 72 hours after treatment.

In assay [3] the test system is Boll weevil (Anthonomus grandis). As to the kind of experiment: Action on Boll weevil (Anthonomus grandis), 96-well microtiter plate insect diet test. As to conditions: 120 h, egg and larval mortality visually assessed after 5 days, read-out: mortality in comparison with untreated controls. As for the experimental part:
Example B3: Action on Boll weevil (Anthonomus grandis )
For evaluating control of boll weevil (Anthonomus grandis) the test unit consisted of 96-well-microtiter plates containing an insect diet and 5-10 A. grandis eggs.
The compounds were formulated using a solution containing 75% (v/v) water and 25% (v/v) DMSO. Different concentrations of formulated compounds were sprayed onto the insect diet at 5 µL, using a custom-built micro atomizer, at two replications.
After application, microtiter plates were incubated at about 25 + 1°C and about 75 + 5 % relative humidity for 5 days. Egg and larval mortality were then visually assessed.

Assay [4] relates to Silverleaf whitefly (Bemisia argentifolii) (adults). As to the kind of experiment: Action on Silverleaf whitefly (Bemisia argentifolii) adults, sprayed cotton plants. As to conditions: 72 h, read-out: mortality in comparison with untreated controls. On the procedure: Example B4: Action on Silverleaf whitefly (Bemisia argentifolii) (adults)
The active compounds were formulated by a Tecan liquid handler in 100% cyclohexanone as a 10,000 ppm solution supplied in tubes. The 10,000 ppm solution was serially diluted in 100% cyclohexanone to make interim solutions. These served as stock solutions for which final dilutions were made by the Tecan in 50% acetone:50% water (v/v) into 5 or 10ml glass vials. A nonionic surfactant (Kinetic®) was included in the solution at a volume of 0.01% (v/v). The vials were then inserted into an automated electrostatic sprayer equipped with an atomizing nozzle for application to plants/insects.
Cotton plants at the cotyledon stage (one plant per pot) were sprayed by an automated electrostatic plant sprayer equipped with an atomizing spray nozzle. The plants were dried in the sprayer fume hood and then removed from the sprayer. Each pot was placed into a plastic cup and about 10 to 12 whitefly adults (approximately 3-5 days old) were introduced. The insects were collected using an aspirator and a nontoxic Tygon® tubing connected to a barrier pipette tip. The tip, containing the collected insects, was then gently inserted into the soil containing the treated plant, allowing insects to crawl out of the tip to reach the foliage for feeding. […] Mortality was assessed 3 days after treatment, compared to untreated control plants.

Assay [5] concerns Tobacco budworm (Heliothis virescens). Description: Action on Tobacco budworm (Heliothis virescens), 96-well microtiter plate insect diet test. The note with it: 120 h, egg and larval mortality visually assessed after 5 days, read-out: mortality in comparison with untreated controls. As for the experimental part:
Example B5: Action on Tobacco budworm (Heliothis virescens)
For evaluating control of tobacco budworm (Heliothis virescens) the test unit consisted of 96-well-microtiter plates containing an insect diet and 15-25 H. virescens eggs.
The compounds were formulated using a solution containing 75% v/v water and 25% v/v DMSO. Different concentrations of formulated compounds were sprayed onto the insect diet at 10 µl, using a custom-built micro atomizer, at two replications.
After application, microtiter plates were incubated at about 28 + 1°C and about 80 + 5 % relative humidity for 5 days. Egg and larval mortality were then visually assessed.

In assay [6] the test system is Diamond back moth (Plutella xylostella). As to the kind of experiment: Action on Diamond back moth (Plutella xylostella), cabbage leaf dip test. The note with it: foliar, third instar larvae on dipped cabbage leaves, 72 hours after treatment, read-out: mortality in comparison with untreated controls. As for the experimental part:
Example B6: Action on Diamond back moth (Plutella xylostella)
The active compound is dissolved at the desired concentration in a mixture of 1:1 (v/v) distilled water: acetone. Surfactant (Kinetic® HV) is added at a rate of 0.01% (v/v). The test solution is prepared at the day of use.
Leaves of cabbage were dipped in test solution and air-dried. Treated leaves were placed in petri dishes lined with moist filter paper and inoculated with ten third instar larvae. Mortality was recorded 72 hours after treatment. Feeding damages were also recorded using a scale of 0-100%.

Assay [7] deals with Southern armyworm (Spodoptera eridania), second instar larvae. As to the kind of experiment: Action on Southern armyworm (Spodoptera eridania), sprayed lima bean plants. The note with it: 96 h, 4 days after treatment, read-out: mortality in comparison with untreated controls. As for the experimental part: Example B7: Action on Southern armyworm (Spodoptera eridania), second instar larvae
The active compounds were formulated by a Tecan liquid handler in 100% cyclohexanone as a 10,000 ppm solution supplied in tubes. The 10,000 ppm solution was serially diluted in 100% cyclohexanone to make interim solutions. These served as stock solutions for which final dilutions were made by the Tecan in 50% acetone:50% water (v/v) into 10 or 20 mL glass vials. A nonionic surfactant (Kinetic®) was included in the solution at a volume of 0.01% (v/v). The vials were then inserted into an automated electrostatic sprayer equipped with an atomizing nozzle for application to plants/insects.
Lima bean plants (variety Sieva) were grown 2 plants to a pot and selected for treatment at the 1st true leaf stage. Test solutions were sprayed onto the foliage by an automated electrostatic plant sprayer equipped with an atomizing spray nozzle. The plants were dried in the sprayer fume hood and then removed from the sprayer. Each pot was placed into perforated plastic bags with a zip closure. About 10 to 11 armyworm larvae were placed into the bag and the bags zipped closed. Test plants were maintained in a growth room at about 25°C and about 20-40% relative humidity for 4 days, avoiding direct exposure to fluorescent light (24 hour photoperiod) to prevent trapping of heat inside the bags. Mortality and reduced feeding were assessed 4 days after treatment, compared to untreated control plants.

Turning to `Cc1ccc(C(C)C)c(N2C(=O)CS/C2=N\N=C\c2ccc(-c3nn(C)c(N4Cc5cc(OC(F)(F)F)ccc5C4=O)c3C)cc2)c1` [C-2, (2Z)-2-[(E)-[4-[1,4-dimethyl-5-[1-oxo-5-(trifluoromethoxy)isoindolin-2-yl]pyrazol-3-yl]phenyl]methylenehydrazono]-3-(2-isopropyl-5-methyl-phenyl)thiazolidin-4-one], the mortality at 800 ppm is at least 50% in assay [1], at least 75% in assay [3] and at least 75% in assay [5]. Moreover, the mortality at 300 ppm in assay [2], in assay [4], in assay [6] and in assay [7] was at least 75% throughout.
